Laboratory results: the supplement of paper PMC10307832

Experiments:
Assay in all cases: relative viability (nuclei count vs DMSO), 5 days (fraction); higher = more cells survive
[1] = compound: Cc1ccc2nc(NCCN)c3ncc(C)n3c2c1
Outline: (§1)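 Lung cancer cell lines in 1536-well plates were exposed by pinning to five library-drug doses (not always all listed) √10 apart, following an overnight hold at 37 °C. MetaXpress counted Hoechst-stained nuclei from 4× images taken after 5 days without medium change. Viability is the median ratio of treated-well to vehicle-well nuclei across plates. Plates required control CV below 25% and at least one doubling.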

Salubrinal = compound: O=C(/C=C/c1ccccc1)NC(NC(=S)Nc1cccc2cccnc12)C(Cl)(Cl)Cl [Salubrinal]
Outline: as §1

[2] = compound: Cc1ccc2nc(NCCN)c3ncc(C)n3c2c1 + Cc1nc(NC(=O)N2CCC[C@H]2C(N)=O)sc1-c1ccnc(C(C)(C)C(F)(F)F)c1 [Alpelisib] (partner 2 µM)
Outline: (§2)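 Nuclei were stained with Hoechst during a one-step fixation (final 0.05% Triton X-100, 1% formaldehyde, 1 ug/ml Hoechst) carried out 5 days after dosing, then counted on 4× images. The cells, lung cancer lines in 1536-well plates, had been dosed by pin tool the day after seeding with one drug alone or a fixed anchor-drug dose plus five library-drug doses (not always all listed) in √10 steps. Relative viability is the nuclei count in treated wells divided by that in vehicle wells, and each value is the median of duplicate plates.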

Salubrinal + Pemetrexed = compound: O=C(/C=C/c1ccccc1)NC(NC(=S)Nc1cccc2cccnc12)C(Cl)(Cl)Cl [Salubrinal] + Nc1nc2[nH]cc(CCc3ccc(C(=O)N[C@@H](CCC(=O)O)C(=O)O)cc3)c2c(=O)[nH]1 [Pemetrexed] (partner 0.2 µM)
Outline: as §2

Cell Line | relative viability ([1]; 0.04 µM) | relative viability ([1]; 0.1265 µM) | relative viability ([1]; 0.4 µM) | relative viability ([1]; 1.265 µM) | relative viability ([1]; 4 µM) | relative viability (Salubrinal; 0.08 µM) | relative viability (Salubrinal; 0.253 µM) | relative viability (Salubrinal; 0.8 µM) | relative viability (Salubrinal; 2.53 µM) | relative viability (Salubrinal; 8 µM) | relative viability ([2]; first compound 0.04 µM) | relative viability ([2]; first compound 0.1265 µM) | relative viability ([2]; first compound 0.4 µM) | relative viability ([2]; first compound 1.265 µM) | relative viability ([2]; first compound 4 µM) | relative viability (Salubrinal + Pemetrexed; first compound 0.08 µM) | relative viability (Salubrinal + Pemetrexed; first compound 0.253 µM) | relative viability (Salubrinal + Pemetrexed; first compound 0.8 µM) | relative viability (Salubrinal + Pemetrexed; first compound 2.53 µM) | relative viability (Salubrinal + Pemetrexed; first compound 8 µM)
SW 1573 | 0.989 | 1.02 | 1 | 1.05 | 0.776 | 1.07 | 1.05 | 1.03 | 0.998 | 0.994 | 0.81 | 0.667 | 0.871 | 0.572 | 0.676 | 0.952 | 0.586 | 0.941 | 0.69 | 0.742
NCI-H1944 | 0.985 | 0.96 | 0.784 | 1.05 | 0.941 | 1.11 | 1.01 | 0.975 | 0.962 | 1 | 0.821 | 0.832 | 0.869 | 0.823 | 0.909 | 0.607 | 0.669 | 0.797 | 0.752 | 0.789
EPLC-272H | 1.01 | 1.13 | 0.992 | 1 | 0.835 | 0.917 | 0.884 | 1.07 | 0.98 | 0.765 | 1.07 | 0.937 | 0.896 | 1.06 | 0.96 | 0.255 | – | 0.363 | 0.342 | 0.294
PC-3 [JPC-3] | 1.01 | 1.05 | 1 | 1.09 | 0.998 | 1.05 | 0.915 | 1.16 | 1.04 | 0.969 | 1.03 | 1.08 | 1.05 | 0.983 | 1.03 | 0.879 | 0.919 | 1.49 | 1.02 | 1.04
NCI-H650 | 1.03 | 1.03 | 0.797 | 1.02 | 0.941 | 0.839 | 1.04 | 1.08 | 1.11 | 0.912 | 1.15 | 0.922 | 1.1 | 0.997 | 0.975 | 1.03 | 1.14 | 1.05 | 1.05 | 0.895
NCI-H838 | 1.03 | 0.951 | 0.912 | 0.907 | 0.929 | 1.1 | 0.987 | 1.07 | 1.07 | 0.922 | 1.01 | 0.961 | 0.938 | 0.883 | 0.899 | 0.253 | 0.231 | 0.257 | 0.267 | 0.23
COR-L 105 | 0.997 | 0.864 | 0.955 | 1.05 | 0.801 | 0.93 | 0.895 | 0.94 | 0.88 | 0.83 | 0.977 | 1.04 | 1.27 | 1.13 | 0.75 | 1.25 | 0.831 | 1.24 | 1.04 | 1.09
NCI-H2405 | 1.02 | 1.01 | 1.03 | 1.05 | 0.915 | 1.01 | 1.03 | 1.09 | 1.03 | 0.966 | 0.835 | 0.698 | 0.801 | 0.728 | 0.696 | 1.01 | 1.16 | 1.17 | 1.05 | 1.07
NCI-H1395 | 0.959 | 0.941 | 0.844 | 0.859 | 0.633 | 0.882 | 1.01 | 1.08 | 1.01 | 0.769 | 1.05 | 1.3 | 1.08 | 1.19 | 0.888 | 0.96 | 1.09 | 1.03 | 0.984 | 0.718
NCI-H661 | 1 | 1.03 | 0.996 | 0.985 | 0.969 | 1.09 | 0.928 | 0.992 | 0.937 | 0.998 | 0.82 | 0.79 | 0.812 | – | 0.474 | 0.942 | 0.808 | 0.936 | 0.89 | 0.91
NCI-H1915 | 0.958 | 0.998 | 0.705 | 0.93 | 0.954 | 0.973 | 0.856 | 1.12 | 1.01 | 0.973 | 0.999 | – | 1.1 | 1.02 | 1.07 | 0.477 | – | 0.562 | 0.495 | 0.466
CAL-12T | 0.984 | 0.981 | 0.976 | 1.02 | 0.91 | 1.09 | 0.956 | 1.08 | 1.03 | 0.888 | 1.17 | 1.11 | 1.3 | 1.25 | 0.992 | 1.4 | 0.754 | 1.46 | 1.07 | 1.21
LXF-289 | 0.985 | 0.966 | 1.01 | 1.01 | 1.02 | 1.04 | 0.945 | 1.01 | 0.995 | 0.975 | 1.1 | 1.01 | 0.984 | 1.06 | 1.03 | 1.06 | 0.891 | 0.988 | 0.851 | 0.851
NCI-H460 | 0.99 | 0.971 | 0.99 | 0.999 | 0.943 | 1.16 | 0.946 | 1.11 | 0.983 | 0.918 | 0.54 | 0.495 | 0.476 | 0.382 | 0.374 | 0.0573 | 0.0837 | 0.0626 | 0.0636 | 0.0643
NCI-H2009 | 1.04 | 0.982 | 1.03 | 1.02 | 0.947 | 1.03 | 1.03 | 1.02 | 0.993 | 0.906 | 1.23 | 1.17 | 1.16 | 1.19 | 1.05 | 1.08 | 0.928 | 1.08 | 1.02 | 0.965
201T | 1.03 | 0.993 | 0.978 | 1.04 | 0.948 | 1.03 | 0.869 | 1.12 | 1.02 | 0.983 | 1.03 | 1.01 | 1.02 | 1.05 | 1.02 | 0.356 | 0.321 | 0.403 | 0.318 | 0.364
